Source: patent US8507547B2, “Anti-fatigue agents and oral compositions containing andrographolide as active ingredient” (Suntory Holdings Limited, priority 2007, dated 2013)

Tests used:
[1] = Safety of administered andrographolide (1000 mg per kilogram of body weight); type: in vivo; details: 1000 mg of andrographolide per kilogram of body weight
Method: Andrographis paniculata containing andrographolide has conventionally been taken in orally and is considered to be infinitely safe. […] It should be noted, however, that there is a report saying that, when an infusion (0.5 g per mouse) or a water extract (1 g of crude drug per mouse) of Andrographis paniculata was injected into abdominal cavities of two mice, they died within 24 hours (Chuyakudaijiten, First Issue, Vol. 3). […] Accordingly, the andrographolide in the composition of the present invention is an active ingredient that is infinitely safe. Thus the amount of andrographolide to be contained is not particularly limited, as long as the amount is adequate to produce a desired effect and not to be toxic; the amount can be appropriately determined according to targets, pathological condition and the stage of illness, impact on taste (slightly bitter), and other factors.

[2] = test system: fatigue animal models such as mice and rats; assay: Fatigue animal models such as mice and rats (summary of effective intake); type: in vivo
Method: Accordingly, the amount of andrographolide to be contained in the composition of the present invention is 0.01-500 mg per kilogram of body weight, preferably 0.1-50 mg per kilogram of body weight, more preferably 0.1-10 mg per kilogram of body weight, especially preferably 0.25-10 mg per kilogram of body weight, per daily amount of the composition to be taken by animals including humans. Especially in the case in which andrographolide is to be orally administered to humans (adult) to obtain anti-fatigue action, it is generally suitable to administer 0.1-100 mg of andrographolide, preferably 0.1-50 mg, more preferably 0.1-10 mg, especially preferably 0.25-10 mg, per daily amount of andrographolide to be taken.

[3] = Stability of andrographolide; type: physicochemical
Description: Thus andrographolide can be contained in the composition of the present invention without being processed or made into various forms according to the purpose by use of methods that are publicly known among people skilled in the art; for instance, it can be made into food, drink, seasoning, alcoholic beverages, functional food, pharmaceuticals, or the like. Especially the composition of the present invention can be made into pharmaceuticals for oral administration or food (e.g., functional food, dietary supplement, food with nutrient function, food for specified use, food for specified health use, nutritional supplement, health food, food for diet therapy, general health food, supplements).

[4] = test system: Sprague Dawley rats; assay: Measurement of fatigue substance in blood (creatine kinase activity in blood plasma after forced exercise); type: in vivo; details: 2 mg per kilogram of body weight orally twice daily, five times in total, before forced exercise stress; FIG. 4
Description: The fourth test is measurement of an amount of fatigue substance. This is described in detail below in Example 4. The test is to determine the effect of administration of the test substance on the amount of fatigue substance at the time when physical or mental stress is applied. Since the fatigue substances change according to the type, intensity, duration, or the like of fatigue that is applied, they are not clearly defined as an indicator, but creatine kinase in blood can be named as one of the candidate substances. Creatine kinase is an enzyme that catalyzes high-energy phosphoryl group transfer from creatine phosphate to ADP, and is considered to serve physiological functions of consuming creatine phosphate to supply ATP at the time of massive energy consumption, such as twitching of skeletal muscles upon instantaneous short-term exercise, in an in vivo energy system. […] It is therefore said that the level of damage on the muscle can be determined by measuring the creatine kinase activity in blood. […]
Muscle fatigue in a living body was determined using creatine kinase levels in blood as a reference index. […] Blood was taken out from a tale vein immediately after the exercise stress, and creatine kinase activity in blood plasma was measured with a biochemistry automatic analyzer (Model 7070, Hitachi High-Technologies Corporation) using an enzyme method. […]

C=C1CC[C@@H]2[C@](C)(CO)[C@H](O)CC[C@@]2(C)[C@@H]1C/C=C1/C(=O)OC[C@H]1O [andrographolide]
abnormality after administration [1]: no abnormality was observed | intake producing desired anti-fatigue action ([2]; taken in advance or during fatigue stress to prevent or reduce mental, physical and organ fatigue): 0.25-200 mg per kilogram of body weight | intake producing desired anti-fatigue action ([2]; taken in to promote recovery from physical fatigue already developed): 0.5-8 mg per kilogram of body weight | stability to pH, moisture, oxidation, light, heat [3]: high stability | creatine kinase activity in blood plasma [4]: decrease in creatine kinase activity was observed
